Assay [1] addresses T1, PDIA3 (Homo sapiens, UniProt P30101).
T1 construct: made in house; host or cells: E. coli BL21 (vector pET21)
T1 sequence (P30101 25-505): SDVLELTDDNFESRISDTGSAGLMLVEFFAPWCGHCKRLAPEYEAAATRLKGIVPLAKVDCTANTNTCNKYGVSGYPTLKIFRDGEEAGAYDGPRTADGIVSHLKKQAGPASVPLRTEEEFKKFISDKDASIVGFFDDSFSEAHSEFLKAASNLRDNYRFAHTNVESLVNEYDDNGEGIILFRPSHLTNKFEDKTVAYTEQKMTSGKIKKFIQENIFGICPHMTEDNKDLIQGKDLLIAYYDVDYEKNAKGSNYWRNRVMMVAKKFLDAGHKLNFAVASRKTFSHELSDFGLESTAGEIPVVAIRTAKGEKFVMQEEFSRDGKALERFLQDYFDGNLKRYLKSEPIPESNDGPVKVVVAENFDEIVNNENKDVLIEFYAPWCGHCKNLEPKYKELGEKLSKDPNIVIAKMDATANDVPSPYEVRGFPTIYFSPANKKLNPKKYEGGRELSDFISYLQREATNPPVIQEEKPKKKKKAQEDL
As to the kind of experiment: DNA binding activity by EMSA. The settings on record: flavonoid 0 to 50 μM. It is filed as biochemical. As to the method: EMSA assay was performed using a 79-bp […] obtained by PCR as previously described. Amplified DNA was end-labeled by using 5-fluorescein-modified primers. 10 ng of DNA fragment was incubated with 1 μg of PDIA3 or a′ domain, in presence of increasing concentration of flavonoids (from 0 to 50 μM). Controls were performed using DNA alone and in the presence of each flavonoid. All tests were performed in 20 μl mixtures containing 20 mM Tris-HCl, pH 7.5, 50 mM NaCl, and 10% (v/v) glycerol. Samples were incubated for 1 hour at 25°C and then resolved on 5% polyacrylamide gels in 0,25% TBE buffer (22.5 mM Tris-borate, 5 mM EDTA, pH 8.3) at 150 V. Gel images were recorded using a ChemiDoc MP Imaging System (BioRad) equipped with an epi-blue excitation lamp and a 520 nm emission filter.
(In EMSA bound probe runs differently from free probe, usually more slowly.)

Assay [2] addresses T2, PDIA3 a′ domain (residues 377–505) (Homo sapiens, UniProt P30101).
T2 construct: second redox-active domain (a′ domain, residues 377–505); made in house; host or cells: E. coli BL21 (vector pET29)
T2 sequence (P30101 377-505): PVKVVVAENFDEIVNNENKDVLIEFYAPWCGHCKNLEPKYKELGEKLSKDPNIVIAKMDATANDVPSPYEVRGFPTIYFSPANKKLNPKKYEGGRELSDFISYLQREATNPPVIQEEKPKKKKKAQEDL
As to the kind of experiment: Fluorescence quenching titration of isolated a′ domain. It is filed as binding. To be noted: a′ domain 1 μM, reduced form; data not shown. An excerpt:
Human recombinant PDIA3 was cloned and expressed in E. coli strain BL21 using the expression vector pET21 (Novagen) as previously described. The coding sequence for the second redox-active domain (a′ domain, residues 377–505) was amplified by PCR as previously described and cloned in the expression vector pET29 (Novagen). Recombinant proteins were expressed in E. coli strain BL21 and purified by ammonium sulphate fractionation, ion exchange, and heparin chromatography. Protein purification was evaluated by SDS-PAGE and concentration was determined spectrophotometrically (PDIA3 ℇ 280 reduced form = 44,810 M^−1 cm^−1; a′ domain ℇ 280 reduced form = 14,400 M^−1 cm^−1).
Quantitative analysis of the interaction between individual flavonoids and PDIA3 was performed by fluorimetric titration. Fluorescence spectra were recorded using a SPEX-FluoroMax spectrofluorimeter (Horiba Scientific) from 300 to 500 nm with excitation at 290 nm using a 10 mm path length quartz fluorescence cuvette and under continuous stirring. The excitation and emission slits were both set to 5 nm and scan speed was 120 nm·min^−1. […] Fluorescence spectra of appropriate blanks (flavonoids without proteins) were recorded under the same experimental conditions and subtracted from the corresponding flavonoid-protein system to correct the fluorescence background. Fluorescence intensities recorded at 338 nm were used for quenching analysis and data obtained for each flavonoid are the average of at least three independent titration experiments.
Quenching analysis was performed on PDIA3 (0.5 μM), in the reduced form, by adding stepwise increasing concentration of each molecule and recording the protein fluorescence spectra. […] Quenching effect on protein and Stern-Volmer quenching constant (K SV) were calculated from the fluorescence intensities at 338 nm of protein alone (F 0) and in the presence of increasing concentration of each ligand molecule (F) using the Stern-Volmer equation [40]: (1) F0/F=1+KSVL, where L is the ligand concentration. […]

The target in assay [3] is T1, PDIA3. As to the kind of experiment: Differential scanning fluorimetry (thermal stability, SYPRO Orange). It is filed as binding. To be noted: flavonoid up to 50 μM, mainly at the highest concentration. As to the method: Protein stability was tested by the fluorescence-based thermal stability assay or differential scanning fluorimetry (DSF) developed by Pantoliano and coworkers. DSF records the fluorescence emission signal from the binding of a dye (SYPRO orange) to the exposed hydrophobic patches upon protein unfolding. Fluorescence measurements were performed using a CFX96 Connect RT-PCR instrument (BioRad). 18 μl aliquots of protein solution (1 μM), freshly diluted in Tris Buffered saline (50 mM TrisHCl, pH 8.0, 150 mM NaCl) containing 0.1 mM DTT, 0.2 mM EDTA, and 1 : 1000 dilution of SYPRO Orange (50 mM stock solution in DMSO), were distributed in a 96-well plate. Sample wells were addition of increasing concentration (up to 50 μM) of individual flavonoid by adding 2 μl of 10-fold concentrated stock solutions freshly prepared. As control, the protein solution was added with 2 μl of the dilution buffer. A melting point analysis was recorded increasing the temperature from 20 to 95°C with an increment of 0.5°C and reading, at each temperature, the fluorescence in fluorescence resonance energy transfer mode (FRET). Each measure was the average of three sample wells reading and each DSF experiment was repeated at least three times. To calculate T m values, DSF data from the melting curve were exported and fitted to Boltzman equation using GraphPad software. Effect of flavonoids was evaluated comparing the T m values in presence and absence of each molecule.
A general note: Differential scanning fluorimetry follows unfolding on heating by fluorescence.

Turning to `COc1ccc(-c2cc(=O)c3c(O)c(OC)c(OC)cc3o2)cc1O` [Eupatorin, eupatorin], the “Effect on DNA binding activity of PDIA3” value at PDIA3 [1] was “did not significantly affect and None”. In addition, the “Affinity for isolated a′ domain” value in assay [2] is “greatest affinity”.

Regarding `O=c1cc(-c2ccc(O)cc2)oc2cc(O)cc(O)c12` [Apigenin, apigenin], the “Effect on PDIA3 stability (T m)” value on PDIA3 [3] is reported as “similar, but less pronounced, effect”. The “Affinity for isolated a′ domain” value in assay [2] is given as “greatest affinity”.

`COc1ccc(-c2cc(=O)c3c(OC)c(OC)c(OC)cc3o2)cc1O` [Eupatorin-5-methyl ether, eupatorin-5-methyl-ether]: the “Effect on DNA binding activity of PDIA3” value at PDIA3 [1] is reported as “did not significantly affect”. Also, the “Affinity for isolated a′ domain” value in assay [2] was “greatest affinity”.
